Results on 21 compounds are retold here after US10208019B2, “GLP-1 receptor agonists and uses thereof” (Pfizer Inc., priority 2016, dated 2019).

For test [1], the target named is human GLP-1R (Homo sapiens (Human), UniProt P43220, L260F). The test can be described thus: CHO GLP-1R Clone C6—Assay 2: HTRF cAMP cell-based functional agonist assay (low GLP-1R density). The note with it: for EC50: CHO GLP-1R Clone C6, cAMP HTRF, geometric mean; for Emax: CHO GLP-1R Clone C6, relative to saturating concentration of full agonist GLP-1 (1 μM), arithmetic mean, read-out: Assay 2 Emax (%). On the technique in general: Time-resolved FRET reads energy transfer from a long-lived donor to a nearby acceptor.
Chain of human GLP-1R (Homo sapiens (Human), UniProt P43220, L260F) (P43220 24-463 L260F): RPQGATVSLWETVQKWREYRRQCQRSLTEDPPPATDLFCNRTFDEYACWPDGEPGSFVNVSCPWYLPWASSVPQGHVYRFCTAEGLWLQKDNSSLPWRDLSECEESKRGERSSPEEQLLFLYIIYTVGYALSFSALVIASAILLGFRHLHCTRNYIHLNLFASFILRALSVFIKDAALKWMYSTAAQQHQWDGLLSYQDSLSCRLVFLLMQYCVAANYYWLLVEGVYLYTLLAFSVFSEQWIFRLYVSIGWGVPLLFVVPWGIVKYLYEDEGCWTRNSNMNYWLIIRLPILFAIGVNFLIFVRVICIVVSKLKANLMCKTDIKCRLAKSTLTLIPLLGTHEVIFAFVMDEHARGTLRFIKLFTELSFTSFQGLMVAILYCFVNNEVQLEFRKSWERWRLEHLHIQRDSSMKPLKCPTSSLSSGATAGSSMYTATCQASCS

For test [2], the target named is human GLP-1R (Homo sapiens, UniProt P43220, G168S). The test can be described thus: CHO GLP-1R Clone H6—Assay 1: HTRF cAMP cell-based functional agonist assay (high GLP-1R density). The note with it: for EC50: read-out: Assay 1 EC50, CHO GLP-1R Clone H6, cAMP HTRF, geometric mean; for Emax: read-out: Assay 1 Emax (%), CHO GLP-1R Clone H6, relative to saturating concentration of full agonist GLP-1 (1 μM), arithmetic mean.
Chain of human GLP-1R (Homo sapiens, UniProt P43220, G168S) (P43220 24-463 G168S limits assumed): as the sequence (P43220 24-463 L260F) above, with G145S, F237L counted along it
Procedure: GLP-1R-mediated agonist activity was determined with a cell-based functional assay utilizing an HTRF (Homogeneous Time-Resolved Fluorescence) cAMP detection kit (cAMP HI Range Assay Kit; CisBio cat #62AM6PEJ) that measures cAMP levels in the cell. The method is a competitive immunoassay between native cAMP produced by the cells and exogenous cAMP labeled with the dye d2. The tracer binding is visualized by a mAb anti-cAMP labeled with Cryptate. The specific signal (i.e. energy transfer) is inversely proportional to the concentration of cAMP in either standard or experimental sample.
The human GLP-1R coding sequence (NCBI Reference Sequence NP_002053.3, including naturally-occurring variant Gly168Ser) was subcloned into pcDNA3 (Invitrogen) and a cell line stably expressing the receptor was isolated (designated Clone H6).
Cells were removed from cryopreservation, re-suspended in 40 mL of Dulbecco's Phosphate Buffered Saline (DPBS-Lonza Cat #17-512Q) and centrifuged at 800×g for 5 min at 22° C. The cell pellet was then re-suspended in 10 mL of growth medium [DMEM/F12 1:1 Mixture with HEPES, L-Gln, 500 mL (DMEM/F12 Lonza Cat #12-719F), 10% heat inactivated fetal bovine serum (Gibco Cat #16140-071), 5 mL of 100× Pen-Strep (Gibco Cat #15140-122), 5 mL of 100× L-Glutamine (Gibco Cat #25030-081) and 500 μg/mL Geneticin (G418) (Invitrogen #10131035)]. A 1 mL sample of the cell suspension in growth media was counted on a Becton Dickinson ViCell to determine cell viability and cell count per mL. The remaining cell suspension was then adjusted with growth media to deliver 2000 viable cells per well using a Matrix Combi Multidrop reagent dispenser, and the cells were dispensed into a white 384 well tissue culture treated assay plate (Corning 3570). The assay plate was then incubated for 48 hours at 37° C. in a humidified environment in 5% carbon dioxide.
Varying concentrations of each compound to be tested (in DMSO) were diluted in assay buffer (HBSS with Calcium/Magnesium (Lonza/BioWhittaker cat #10-527F)/0.1% BSA (Sigma Aldrich cat #A7409-1L)/20 mM HEPES (Lonza/BioWhiftaker cat #17-737E) containing 100 μM 3-isobutyl-1-methylxanthin (IBMX; Sigma cat #15879). The final DMSO concentration is 1%.
After 48 hours, the growth media was removed from the assay plate wells, and the cells were treated with 20 μL of the serially diluted compound in assay buffer for 30 minutes at 37° C. in a humidified environment in 5% carbon dioxide. Following the 30 minute incubation, 10 μL of labeled d2 cAMP and 10 μL of anti-cAMP antibody (both diluted 1:20 in cell lysis buffer; as described in the manufacturer's assay protocol) were added to each well of the assay plate. The plates were then incubated at room temperature and after 60 minutes, changes in the HTRF signal were read with an Envision 2104 multi-label plate reader using excitation of 330 nm and emissions of 615 and 665 nm. Raw data were converted to nM cAMP by interpolation from a cAMP standard curve (as described in the manufacturer's assay protocol) and the percent effect was determined relative to a saturating concentration of the full agonist GLP-17-36 (1 μM) included on each plate. EC50 determinations were made from agonist dose-response curves analyzed with a curve fitting program using a 4-parameter logistic dose response equation.

Take `CCn1cncc1Cn1c(CN2CCN(c3cccc(OCc4ccc(Cl)cc4F)n3)C[C@@H]2C)nc2ccc(C(=O)O)cc21` [Example 10A-67, 2-{[(2S)-4-{6-[(4-chloro-2-fluorobenzyl)oxy]pyridin-2-yl}-2-methylpiperazin-1-yl]methyl}-1-[(1-ethyl-1H-imidazol-5-yl)methyl]-1H-benzimidazole-6-carboxylic acid]: the half-maximal effective concentration (EC50) in test [1] was 6.8 nM; in test [2], 0.59 nM. Also, the Emax amounted to 93% in test [1] and 83% in test [2].

For `CCn1nncc1Cn1c(CN2CCC(c3cccc(OCc4ccc(C#N)cc4F)n3)CC2)nc2ccc(C(=O)O)cc21` [Example 10A-69, 2-[(4-{6-[(4-cyano-2-fluorobenzyl)oxy]pyridin-2-yl}piperidin-1-yl)methyl]-1-[(1-ethyl-1H-1,2,3-triazol-5-yl)methyl]-1H-benzimidazole-6-carboxylic acid], in test [1], the EC50 amounted to 20 nM and the Emax was determined as 87%. Moreover, in test [2], the EC50 came out at 2 nM and the Emax amounted to 84%.

On to `O=C(O)c1ccc2nc(CN3CCC(c4cccc(OCc5ccc(Cl)cc5F)n4)CC3)n([C@H]3CCOC3)c2c1` [Example 10A-71], for which, in test [1], it took 5800 nM to reach a half-maximal effect (EC50) and the Emax was 85%. Moreover, in test [2], the EC50 amounted to 190 nM and the Emax is 62%.

Consider `O=C(O)c1ccc2nc(CN3CCC(c4cccc(OCc5ccc(Cl)cc5F)n4)CC3)n(C[C@@H]3CCCO3)c2c1` [Example 10A-73, 2-[(4-{6-[(4-chloro-2-fluorobenzyl)oxy]pyridin-2-yl}piperidin-1-yl)methyl]-1-[(2S)-tetrahydrofuran-2-ylmethyl]-1H-benzimidazole-6-carboxylic acid], for which, in test [1], the EC50 came to 88 nM and the maximal effect (Emax) is 82%. In addition, in test [2], the EC50 was determined as 8.6 nM and the Emax was 78%.

With `O=C(O)c1ccc2nc(CN3CCN(c4cccc(OCc5ccc(Cl)cc5F)n4)CC3)n(C[C@@H]3CCO3)c2n1` [Example 10A-74, 2-[(4-{6-[(4-chloro-2-fluorobenzyl)oxy]pyridin-2-yl}piperazin-1-yl)methyl]-3-[(2S)-oxetan-2-ylmethyl]-3H-imidazo[4,5-b]pyridine-5-carboxylic acid], in test [1], the response was half-maximal at 9.7 nM (EC50) and the Emax is 100%. In addition, in test [2], the 50% effective concentration (EC50) was 0.9 nM and the maximal effect (Emax) is 94%.

As to `CCn1cncc1Cn1c(CN2CCC(c3cccc(OCc4ccc(C#N)cc4F)n3)CC2)nc2ccc(C(=O)O)nc21` [Example 10A-75], in test [1], the EC50 was 13 nM and the Emax is 91%. In test [2], the EC50 came to 0.95 nM and the Emax is 95%.

For `Cn1cncc1Cn1c(CN2CCC(c3cccc(OCc4ccc(C#N)cc4F)n3)CC2)nc2ccc(C(=O)O)nc21` [Example 10A-76], the EC50 in test [1] amounted to 51 nM; in test [2] it was 2.9 nM. Further, the results for the Emax in test [1] and in test [2] were 95% and 79%, respectively.

In the case of `N#Cc1ccc(COc2cccc(N3CCN(Cc4nc5ccc(C(=O)O)nc5n4C[C@@H]4CCO4)CC3)n2)c(F)c1` [Example 10A-77, 2-[(4-{6-[(4-cyano-2-fluorobenzyl)oxy]pyridin-2-yl}piperazin-1-yl)methyl]-3-[(2S)-oxetan-2-ylmethyl]-3H-imidazo[4,5-b]pyridine-5-carboxylic acid], the EC50 in test [1] came out at 10 nM; in test [2], 0.96 nM. The values for the maximal response (Emax) in test [1] and in test [2] were 120% and 100%, respectively.

As for `N#Cc1ccc(COc2cccc(C3CCN(Cc4nc5ccc(C(=O)O)cc5n4C[C@@H]4CCO4)CC3)n2)cc1` [Example 10A-78, 2-[(4-{6-[(4-cyanobenzyl)oxy]pyridin-2-yl}piperidin-1-yl)methyl]-1-[(2S)-oxetan-2-ylmethyl]-1H-benzimidazole-6-carboxylic acid], in test [1], the EC50 stood at 28 nM and the Emax came to 88%. Further, in test [2], the EC50 came to 1.6 nM and the maximal response (Emax) was 83%.

Turning to `CC1(Cn2c(CN3CCC(c4cccc(OCc5ccc(Cl)cc5F)n4)CC3)nc3ccc(C(=O)O)cc32)CCOC1` (stereo not shown) [Example 11A-14, 2-[(4-{6-[(4-chloro-2-fluorobenzyl)oxy]pyridin-2-yl}piperidin-1-yl)methyl]-1-[(3-methyltetrahydrofuran-3-yl)methyl]-1H-benzimidazole-6-carboxylic acid], in test [1], the EC50 worked out at 230 nM and the Emax stood at 77%. Further, in test [2], the concentration for a half-maximal effect (EC50) came to 8.1 nM and the Emax was found to be 64%.

Turning to `O=C(O)c1ccc2nc(CN3CCC(c4cccc(OCc5ccc(Cl)cc5F)n4)CC3)n(Cc3cn[nH]c3)c2c1` [Example 11A-15, 2-[(4-{6-[(4-chloro-2-fluorobenzyl)oxy]pyridin-2-yl}piperidin-1-yl)methyl]-1-(1H-pyrazol-4-ylmethyl)-1H-benzimidazole-6-carboxylic acid], in test [1], the EC50 amounted to 94 nM and the maximal effect (Emax) is 92%. In test [2], the EC50 is 9.4 nM and the maximum response (Emax) is 69%.

Turning to `O=C(O)c1ccc2nc(CN3CCC(c4cccc(OCc5ccc(Cl)cc5F)n4)CC3)n(CC3CCC3)c2c1` [Example 11A-16, 2-[(4-{6-[(4-chloro-2-fluorobenzyl)oxy]pyridin-2-yl}piperidin-1-yl)methyl]-1-(cyclobutylmethyl)-1H-benzimidazole-6-carboxylic acid], in test [1], the EC50 turned out to be 410 nM and the maximal effect (Emax) is 75%. Besides, in test [2], the EC50 worked out at 11 nM and the Emax is 71%.

On to `O=C(O)c1ccc2nc(CN3CCC(c4cccc(OCc5ccc(Cl)cc5F)n4)CC3)n(CCn3cncn3)c2c1` [Example 11A-17, 2-[(4-{6-[(4-chloro-2-fluorobenzyl)oxy]pyridin-2-yl}piperidin-1-yl)methyl]-1-[2-(1H-1,2,4-triazol-1-yl)ethyl]-1H-benzimidazole-6-carboxylic acid], for which the EC50 in test [1] was determined as 380 nM; in test [2], 11 nM. Further, the figures for the Emax in test [1] and in test [2] were 96% and 65%, respectively.

Regarding `CCOC(C)Cn1c(CN2CCC(c3cccc(OCc4ccc(Cl)cc4F)n3)CC2)nc2ccc(C(=O)O)cc21` (stereo not shown) [Example 11A-18, 2-[(4-{6-[(4-chloro-2-fluorobenzyl)oxy]pyridin-2-yl}piperidin-1-yl)methyl]-1-(2-ethoxypropyl)-1H-benzimidazole-6-carboxylic acid], the EC50 in test [1] worked out at 270 nM; in test [2], 14 nM. The Emax in test [1] was 92%; in test [2], 80%.

`COCCn1cnnc1Cn1c(CN2CCC(c3cccc(OCc4ccc(Cl)cc4F)n3)CC2)nc2ccc(C(=O)O)cc21` [Example 11A-19, 2-[(4-{6-[(4-chloro-2-fluorobenzyl)oxy]pyridin-2-yl}piperidin-1-yl)methyl]-1-{[4-(2-methoxyethyl)-4H-1,2,4-triazol-3-yl]methyl}-1H-benzimidazole-6-carboxylic acid]: the values for the half-maximal effective concentration (EC50) in test [1] and in test [2] were 230 nM and 15 nM, respectively. In addition, the Emax in test [1] stood at 110%; in test [2] it was 83%.

Consider `O=C(O)c1ccc2nc(CN3CCC(c4cccc(OCc5ccc(Cl)cc5F)n4)CC3)n(CCN3CCOC3=O)c2c1` [Example 11A-20], for which the EC50 in test [1] was 270 nM; in test [2] it was 15 nM.

As for `Cn1nccc1Cn1c(CN2CCC(c3cccc(OCc4ccc(Cl)cc4F)n3)CC2)nc2ccc(C(=O)O)cc21` [Example 11A-21, 2-[(4-{6-[(4-chloro-2-fluorobenzyl)oxy]pyridin-2-yl}piperidin-1-yl)methyl]-1-[(1-methyl-1H-pyrazol-5-yl)methyl]-1H-benzimidazole-6-carboxylic acid], in test [1], the response was half-maximal at 270 nM (EC50) and the Emax came to 83%. In test [2], the EC50 came to 18 nM and the maximal effect (Emax) was determined as 82%.

In the case of `COC(C)(C)Cn1c(CN2CCC(c3cccc(OCc4ccc(Cl)cc4F)n3)CC2)nc2ccc(C(=O)O)cc21` [Example 11A-22, 2-[(4-{6-[(4-chloro-2-fluorobenzyl)oxy]pyridin-2-yl}piperidin-1-yl)methyl]-1-(2-methoxy-2-methylpropyl)-1H-benzimidazole-6-carboxylic acid], in test [1], the EC50 is 200 nM and the Emax is 81%. Also, in test [2], the EC50 turned out to be 21 nM and the maximal effect (Emax) is 82%.

Consider `O=C(O)c1ccc2nc(CN3CCC(c4cccc(OCc5ccc(Cl)cc5F)n4)CC3)n(Cc3c[nH]nn3)c2c1` [Example 11A-23, 2-[(4-{6-[(4-chloro-2-fluorobenzyl)oxy]pyridin-2-yl}piperidin-1-yl)methyl]-1-(1H-1,2,3-triazol-4-ylmethyl)-1H-benzimidazole-6-carboxylic acid], for which, in test [1], a half-maximal response (EC50) required 330 nM and the Emax is 96%. Besides, in test [2], the EC50 amounted to 25 nM and the Emax was 78%.

With `O=C(O)c1ccc2nc(CN3CCC(c4cccc(OCc5ccc(Cl)cc5F)n4)CC3)n(Cc3cc[nH]n3)c2c1` [Example 11A-24, 2-[(4-{6-[(4-chloro-2-fluorobenzyl)oxy]pyridin-2-yl}piperidin-1-yl)methyl]-1-(1H-pyrazol-3-ylmethyl)-1H-benzimidazole-6-carboxylic acid], in test [1], a half-maximal effect (EC50) was put at 450 nM and the Emax amounted to 89%. In test [2], the EC50 was 28 nM and the Emax was 80%.

For the compound `O=C(O)c1ccc2nc(CN3CCC(c4cccc(OCc5ccc(Cl)cc5F)n4)CC3)n(Cc3nnc[nH]3)c2c1` [Example 11A-25, 2-[(4-{6-[(4-chloro-2-fluorobenzyl)oxy]pyridin-2-yl}piperidin-1-yl)methyl]-1-(4H-1,2,4-triazol-3-ylmethyl)-1H-benzimidazole-6-carboxylic acid], the figures for the EC50 in test [1] and in test [2] were 360 nM and 30 nM, respectively. Also, the Emax in test [1] stood at 89%; in test [2], 77%.

The term EC50 denotes the concentration needed to bring the measured effect to its halfway point. As usually defined, the Emax is the greatest response seen or fitted, relative to the assay's reference.
